Source: PubChem BioAssay (NCI)
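Growth conditions: 96-well plates. Treatment: test compound, 48 hours, 5 concentrations. Analysis: linear interpolation between bracketing concentrations; unreached endpoints set to highest concentration. GI50 = concentration required for 50% inhibition of growth. The concentration for full growth arrest is given as TGI.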

Key:
Test in all cases: growth of human tumour cells (NCI), 48 h
786-0 renal = test system: 786-0 renal
MDA-MB-231 breast = test system: MDA-MB-231 breast
A549 NSCLC = test system: A549 NSCLC
MCF7 breast = test system: MCF7 breast
IGROV1 ovarian = test system: IGROV1 ovarian
SK-OV-3 ovarian = test system: SK-OV-3 ovarian
SNB-75 CNS = test system: SNB-75 CNS
SNB-19 CNS = test system: SNB-19 CNS
OVCAR-3 ovarian = test system: OVCAR-3 ovarian
BT-549 breast = test system: BT-549 breast

Row | SMILES | GI50 (786-0 renal) | TGI (786-0 renal) | GI50 (MDA-MB-231 breast) | TGI (MDA-MB-231 breast) | GI50 (A549 NSCLC) | TGI (A549 NSCLC) | GI50 (MCF7 breast) | TGI (MCF7 breast) | GI50 (IGROV1 ovarian) | TGI (IGROV1 ovarian) | GI50 (SK-OV-3 ovarian) | TGI (SK-OV-3 ovarian) | GI50 (SNB-75 CNS) | TGI (SNB-75 CNS) | GI50 (SNB-19 CNS) | TGI (SNB-19 CNS) | GI50 (OVCAR-3 ovarian) | TGI (OVCAR-3 ovarian) | GI50 (BT-549 breast) | TGI (BT-549 breast)
1 | O=C1c2ccccc2-c2c1c1ccccc1c(=O)n2CCNCCNCCn1c2c(c3ccccc3c1=O)C(=O)c1ccccc1-2 | 0.0267 µM | 2.37 µM | 0.432 µM | 5.72 µM | 0.231 µM | > 38.2 µM | 0.109 µM | 1.06 µM | 1.02 µM | > 21.2 µM | 12.8 µM | 36.2 µM | 7.95 µM | 47.5 µM | 1.14 µM | 20.5 µM | 1.02 µM | 8.98 µM | 3.47 µM | 17.4 µM
2 | COC(=O)Nc1nc2ccccc2c(=O)[nH]1 |  | > 100 µM |  | > 100 µM |  | > 100 µM |  | > 100 µM |  | > 100 µM |  | > 100 µM |  | > 100 µM |  | > 100 µM |  | > 100 µM |  | > 100 µM
3 | Cn1c(=O)c2[nH]c(CS(=O)(=O)Cc3nc4c([nH]3)c(=O)n(C)c(=O)n4C)nc2n(C)c1=O |  | > 100 µM |  | > 100 µM |  | > 100 µM |  | > 100 µM |  | > 100 µM |  | > 100 µM |  | > 100 µM |  | > 100 µM |  | > 100 µM |  | > 100 µM
4 | CCN(CC)CCCCCCCNc1c2ccc(Cl)cc2nc2ccc(OC)cc12 | 0.902 µM | 2.35 µM | 1.48 µM | 3.86 µM | 0.664 µM | 2.69 µM | 0.356 µM | 1.59 µM | 0.498 µM | 1.65 µM | 1.41 µM | 3.58 µM | 1.29 µM | 2.62 µM | 1.75 µM | 5.84 µM | 1.55 µM | 3.69 µM | 1.68 µM | 3.28 µM
5 | Cc1ccc2c(=O)c3cccc(CC(=O)O)c3oc2c1C | > 100 µM | > 100 µM | > 100 µM | > 100 µM | > 100 µM | > 100 µM | > 100 µM | > 100 µM | > 100 µM | > 100 µM | > 100 µM | > 100 µM | > 100 µM | > 100 µM | > 100 µM | > 100 µM | > 100 µM | > 100 µM | > 100 µM | > 100 µM
6 | CCOC(=O)Oc1c(OC)cc(C(=O)O[C@@H]2C[C@@H]3CN4CCc5c([nH]c6cc(OC)ccc56)[C@H]4C[C@@H]3[C@H](C(=O)OC)[C@H]2OC)cc1OC | 9.62 µM | 25.3 µM | 2.56 µM | 19.6 µM | 3.41 µM | 14.2 µM | 4.13 µM | 17.3 µM | 9.58 µM | 39.2 µM | 14.3 µM | 27.4 µM | 6.64 µM | 24.5 µM | 5.04 µM | 20.9 µM | 4.62 µM | 16.1 µM | 9.08 µM | 24.1 µM
7 | O=c1cc(-c2ccccc2)nc2n1CCN2Cc1ccccc1 | 39.7 µM | > 100 µM | 32.2 µM | > 100 µM | 35.2 µM | > 100 µM | 41.9 µM | > 100 µM | 21.2 µM | 53.2 µM | 51.3 µM | > 100 µM | 60.5 µM | > 100 µM | 80.9 µM | > 100 µM | 27.3 µM | 99.6 µM | 26.6 µM | 67.2 µM
8 | O=C(NC(=S)Nc1ccc(Cl)cc1)c1ccccc1 | > 87.4 µM | > 100 µM | > 51.6 µM | > 100 µM | > 100 µM | > 100 µM | 2.85 µM |  | > 87.7 µM | > 100 µM | > 100 µM | > 100 µM | > 49.7 µM | > 100 µM | > 79.2 µM | > 100 µM | > 70.6 µM | > 100 µM | > 100 µM | > 100 µM
9 | N=C(N)CCCCCCCCC(=N)N | > 100 µM | > 100 µM | 63.3 µM | > 100 µM | 6.6 µM | > 100 µM | 25.7 µM | > 100 µM | 52.9 µM | > 100 µM | 22.1 µM | > 100 µM | 29.1 µM | > 100 µM | 22.5 µM | > 100 µM | 34.1 µM | > 100 µM | 27.2 µM | > 100 µM
10 | CCOC(CN=c1nc(N(C)C)ss1)OCC |  | 39.7 µM |  | 29.8 µM |  | > 100 µM |  | > 65.3 µM |  | > 100 µM |  | > 100 µM |  | 78.4 µM |  | > 77.4 µM |  | > 46.4 µM |  | 55.5 µM
11 | C[C@]12CCC(=O)C(O)=C1CC[C@@H]1[C@@H]2CC[C@]2(C)C(=O)CC[C@@H]12 |  | > 100 µM |  | > 100 µM |  | > 100 µM |  | > 100 µM |  | > 100 µM |  | > 100 µM |  | > 100 µM |  | > 100 µM |  | > 100 µM |  | > 100 µM
12 | CCN(CC)CCOc1ccc(/C=C2\CC3C4CC=C5C[C@@H](N6CCCC6)CC[C@]5(C)C4CC[C@]3(C)[C@H]2O)cc1OC (some centres undefined) | 2.64 µM | 10.1 µM | 2.96 µM | 7.58 µM | 7.91 µM | > 100 µM | 4.45 µM | > 59 µM | 8.91 µM | > 27.6 µM | 27.2 µM | > 70.8 µM | 14.6 µM | > 69.4 µM | 6.2 µM | > 63.5 µM | 5.06 µM | 13.6 µM | 4.7 µM | 19.3 µM
13 | COc1cc(/C=C/C(=O)c2ccc(Cl)cc2)ccc1OS(=O)(=O)c1ccc(C)cc1 | 10.7 µM | 24.6 µM | 9.02 µM | 28 µM | 18.4 µM | > 100 µM | 2.56 µM | 25.6 µM | 14.5 µM | 41.7 µM | 30.1 µM | > 100 µM | 31.6 µM | > 100 µM | 9.53 µM | 23.2 µM | 3.57 µM | 12.6 µM | 5.64 µM | 18.7 µM
14 | C=C1C(=O)OC2CC3(CO3)C3C(O)C(O)CC3(C)CC12 (centres undefined) |  | > 100 µM |  | 60.5 µM |  | > 100 µM |  | 62.1 µM |  | > 100 µM |  | > 100 µM |  | > 100 µM |  | > 100 µM |  | 55.6 µM |  | 33.9 µM
